ChEMBL document CHEMBL1149683, “Novel TOPP descriptors in 3D-QSAR analysis of apoptosis inducing 4-aryl-4H-chromenes: comparison versus other 2D- and 3D-descriptors” (2007)

Test system: HL-60
Experiment: Induction of apoptosis in human HL60 […]
Format: functional

SMILES | Log (1/C)
COc1ccc2c(c1)OC(N)=C(C#N)C2c1cc(Br)c(OC)c(OC)c1 (stereo not drawn) | 7.77
COc1ccc2c(c1)OC(N)=C(C#N)C2c1cccc(Br)c1 (stereo not drawn) | 7.28
COc1ccc2c(c1)OC(N)=C(C#N)C2c1cccc(Cl)c1 (stereo not drawn) | 7.1
COc1cc(OC)cc(C2C(C#N)=C(N)Oc3cc(OC)ccc32)c1 (stereo not drawn) | 7.82
COc1ccc2c(c1)OC(N)=C(C#N)C2c1cccc([N+](=O)[O-])c1 (stereo not drawn) | 7.05
CCNc1ccc2c(c1)OC(N)=C(C#N)C2c1cc(OC)c2c(c1)OCO2 (stereo not drawn) | 6.48
CCNc1cc2c(cc1C)C(c1cc(OC)c3c(c1)OCO3)C(C#N)=C(N)O2 (stereo not drawn) | 5.96
COc1cc(C2C(C#N)=C(N)Oc3cc(Cl)ccc32)cc(Br)c1OC (stereo not drawn) | 6.8
CCOc1ccc2c(c1)OC(N)=C(C#N)C2c1cc(Br)c(OC)c(OC)c1 (stereo not drawn) | 7.19
COc1cc(C2C(C#N)=C(N)Oc3cc(O)ccc32)cc(Br)c1OC (stereo not drawn) | 6.89
COc1cc(C2C(C#N)=C(N)Oc3c2ccc(N)c3C)cc2c1OCO2 (stereo not drawn) | 6.51
N#CC1=C(N)Oc2c(ccc(N)c2N)C1c1cccc(Br)c1 (stereo not drawn) | 6.82
COc1cc(C2C(C#N)=C(N)Oc3c2ccc(O)c3O)cc(Br)c1OC (stereo not drawn) | 5.77
COc1ccc2c(c1)OC(N)=C(C#N)C2c1ccccc1 (stereo not drawn) | 6.44
COc1ccc2c(c1)OC(N)=C(C#N)C2c1cc(OC)c(OC)c(OC)c1 (stereo not drawn) | 7.59
COc1ccc2c(c1)OC(N)=C(C#N)C2c1cc(OC)c2c(c1)OCO2 (stereo not drawn) | 6.8
COc1ccc2c(c1)OC(N)=C(C#N)C2c1cccnc1 (stereo not drawn) | 6.77
N#CC1=C(N)Oc2c(ccc(N)c2N)C1c1cccc(C#N)c1 (stereo not drawn) | 6.41
COc1cc(C2C(C#N)=C(N)Oc3cc4c(cc32)OCO4)cc2c1OCO2 (stereo not drawn) | 6.68
COc1cc(C2C(C#N)=C(N)Oc3c2ccc(C)c3C)cc(Br)c1OC (stereo not drawn) | 7.38
COc1cc(C2C(C#N)=C(N)Oc3c2ccc(N)c3N)cc(Br)c1O (stereo not drawn) | 7.64
COc1cc(C2C(C#N)=C(N)Oc3c2ccc(N)c3N)cc(I)c1OC (stereo not drawn) | 5.31
COc1cc(C2C(C#N)=C(N)Oc3c2ccc(N)c3N)cc(Cl)c1OC (stereo not drawn) | 7.62
COc1cccc(C2C(C#N)=C(N)Oc3cc(N(C)C)ccc32)c1OC (stereo not drawn) | 5.99
CN(C)c1ccc2c(c1)OC(N)=C(C#N)C2c1cccc(Br)c1 (stereo not drawn) | 7.19

SMILES | Log (1/C)
CN(C)c1ccc2c(c1)OC(N)=C(C#N)C2c1cccc(Cl)c1 (stereo not drawn) | 6.95
CN(C)c1ccc2c(c1)OC(N)=C(C#N)C2c1cccs1 (stereo not drawn) | 6.7
CN(C)c1ccc2c(c1)OC(N)=C(C#N)C2c1cccnc1 (stereo not drawn) | 7.17
COc1cc(C2C(C#N)=C(N)Oc3cc(N(C)C)ccc32)cc(Cl)c1OC (stereo not drawn) | 7.74
COc1ccc(C2C(C#N)=C(N)Oc3cc(N(C)C)ccc32)c(OC)c1OC (stereo not drawn) | 5.5
CN(C)c1ccc2c(c1)OC(N)=C(C#N)C2c1cccc(F)c1 (stereo not drawn) | 7.09
COc1cc(C2C(C#N)=C(N)Oc3cc(N(C)C)ccc32)cc(I)c1OC (stereo not drawn) | 7.74
CN(C)c1ccc2c(c1)OC(N)=C(C#N)C2c1ccccn1 (stereo not drawn) | 6.33
COc1cc(OC)c(C2C(C#N)=C(N)Oc3cc(N(C)C)ccc32)cc1OC (stereo not drawn) | 5.75
Cc1cncc(C2C(C#N)=C(N)Oc3cc(N(C)C)ccc32)c1 (stereo not drawn) | 7.96
Cc1cccc(C2C(C#N)=C(N)Oc3cc(N(C)C)ccc32)n1 (stereo not drawn) | 6.61
CN(C)c1ccc2c(c1)OC(N)=C(C#N)C2c1cccc(OC(F)(F)F)c1 (stereo not drawn) | 6.35
COc1ccc(C2C(C#N)=C(N)Oc3cc(N(C)C)ccc32)cc1 (stereo not drawn) | 5.8
Cc1cccc(C2C(C#N)=C(N)Oc3cc(N(C)C)ccc32)c1 (stereo not drawn) | 6.87
CN(C)c1ccc2c(c1)OC(N)=C(C#N)C2c1cc(Br)c2c(c1)OCO2 (stereo not drawn) | 6.61
CN(C)c1ccc2c(c1)OC(N)=C(C#N)C2c1cc(Cl)cc(Cl)c1 (stereo not drawn) | 7.12
COc1ccc(C2C(C#N)=C(N)Oc3cc(N(C)C)ccc32)cc1OC (stereo not drawn) | 6.6
CCNc1ccc2c(c1)OC(N)=C(C#N)C2c1cccc(Cl)c1 (stereo not drawn) | 6.92
CCNc1ccc2c(c1)OC(N)=C(C#N)C2c1cc(OC)c(OC)c(OC)c1 (stereo not drawn) | 7.31
CCNc1ccc2c(c1)OC(N)=C(C#N)C2c1cccc(OC)c1 (stereo not drawn) | 6.96
COc1ccc(CC2C(C#N)=C(N)Oc3cc(N(C)C)ccc32)c(Br)c1OC (stereo not drawn) | 5.14
CCN(CC)c1ccc2c(c1)OC(N)=C(C#N)C2c1cc(OC)c2c(c1)OCO2 (stereo not drawn) | 6.32
COc1cc(C2C(C#N)=C(N)Oc3cc(O)ccc32)cc2c1OCO2 (stereo not drawn) | 5.24
COc1cc(C2C(C#N)=C(N)Oc3cc(Br)ccc32)cc(Br)c1OC (stereo not drawn) | 6.85
COc1cc(C2C(C#N)=C(N)Oc3c2ccc(N)c3N)cc(Br)c1OC (stereo not drawn) | 7.47

SMILES | Log (1/C)
COc1cc(OC)cc(C2C(C#N)=C(N)Oc3c2ccc(N)c3N)c1 (stereo not drawn) | 7.04
CCNc1ccc2c(c1)OC(N)=C(C#N)C2c1cc(Br)c(OC)c(OC)c1 (stereo not drawn) | 7.85
COc1cccc(C2C(C#N)=C(N)Oc3cc(OC)ccc32)c1 (stereo not drawn) | 7.28
COc1cc(C2C(C#N)=C(N)Oc3cc(N(C)C)ccc32)cc2c1OCO2 (stereo not drawn) | 7.14
COc1cc(C2C(C#N)=C(N)Oc3cc(N)ccc32)cc2c1OCO2 (stereo not drawn) | 5.92
CN(C)c1ccc2c(c1)OC(N)=C(C#N)C2c1cccc(O)c1 (stereo not drawn) | 6.57
CN(C)c1ccc2c(c1)OC(N)=C(C#N)C2c1cc(Br)cs1 (stereo not drawn) | 6.82
CN(C)c1ccc2c(c1)OC(N)=C(C#N)C2c1cccc(C#N)c1 (stereo not drawn) | 7.2
CN(C)c1ccc2c(c1)OC(N)=C(C#N)C2CCc1ccccc1 (stereo not drawn) | 6.37
CN(C)c1ccc2c(c1)OC(N)=C(C#N)C2c1cnc2ccccc2c1 (stereo not drawn) | 5.74
N#CC1=C(N)Oc2c(ccc(N)c2N)C1c1cccc([N+](=O)[O-])c1 (stereo not drawn) | 6.41
COc1cc(C2C(C#N)=C(N)Oc3c2ccc(O)c3N)cc(Br)c1OC (stereo not drawn) | 7.21
COc1cncc(C2C(C#N)=C(N)Oc3cc(OC)ccc32)c1 (stereo not drawn) | 7.33
COc1cc(C2C(C#N)=C(N)Oc3cc(N)ccc32)cc(Br)c1OC (stereo not drawn) | 7.48
COc1cccc(C2C(C#N)=C(N)Oc3cc(N(C)C)ccc32)c1 (stereo not drawn) | 7.19
COc1cc(C2C(C#N)=C(N)Oc3cc(N(C)C)ccc32)cc(Br)c1O (stereo not drawn) | 7.39
CCNc1ccc2c(c1)OC(N)=C(C#N)C2c1cccc([N+](=O)[O-])c1 (stereo not drawn) | 6.96
CCNc1ccc2c(c1)OC(N)=C(C#N)C2c1cc(OC)cc(OC)c1 (stereo not drawn) | 7.26
CN(C)c1ccc2c(c1)OC(N)=C(C#N)C2c1ccncc1 (stereo not drawn) | 6.42
COc1cc(Br)cc(C2C(C#N)=C(N)Oc3cc(N(C)C)ccc32)c1 (stereo not drawn) | 7.51
CN(C)c1ccc2c(c1)OC(N)=C(C#N)C2c1cncc(Br)c1 (stereo not drawn) | 7.48
COc1cc(C2C(C#N)=C(N)Oc3c2ccc(N)c3C)cc(Br)c1OC (stereo not drawn) | 7.59
COc1ccccc1C1C(C#N)=C(N)Oc2cc(N(C)C)ccc21 (stereo not drawn) | 6.55
